Data taken from patent US9708302B2, “Flouro-naphthyl derivatives” (Hoffmann-La Roche Inc., priority 2014, dated 2017).

Experiments:
hM1 = hM1 (Homo sapiens (Human), UniProt P11229); test: M1 PAM Assay (FLIPR intracellular calcium, CHO human M1 cells); type: cell-based; conditions: positive allosteric modulation in presence of EC20 of acetylcholine, first value of cell
Description: (§1) The assay study the effect of several concentrations of test compounds on basal or acetylcholine-stimulated Ca^2+ levels using FLIPR.
(§2) CHO human M1 are plated the day before the experiments at 2×10^5 cells/ml in PDL BioCoat 96 well black/clear plate (Becton 35 4640). The cells are grown at 37° C. and 5% CO2 in the following medium: F12 Nut Mix (Gibco 21765), 10% FCS heat inactivated (GIBCO 16000-044), 1% Pen Strep (Gibco, 15140) and 200 μg/ml Geneticin (Gibco 11811). On the day of the experiment, the medium was removed and replaced by 100 μl of dye loading buffer containing Hanks Balanced Salt solution (HBSS, 14065-049, Gibco) with 20 mM HEPES (Gibco 15630-056), 2 mM Probenicid (Sigma P8761), […] (Molecular Probes F-14202), 10% Pluronic acid Molecular Probes P-3000) pH=7.4 and incubated at 37° C. After 60 minutes extracellular dye was removed and the cells were washed five times with FLIPR buffer containing HBSS (Gibco 14065-049) with 20 mM HEPES (Gibco, 15630-056), 2 mM Probenicid (Sigma P8761) pre-warmed at 37° C. using and Ebml cell washer leaving 100 μl of FLIPR buffer in each well. The cell plate and the diluted compounds (1% DMSO final concentration) are placed on the platform of the FLIPR and the door closed. A signal test to check background fluorescence and basal fluorescence signal is performed. Laser intensity is adjusted if necessary. Two minutes preincubation with the diluted test compounds is provide to determine any agonist activity on the M1 receptor by comparison to 30 nM Acetylcholine control. In order to determine any modulator activity the diluted compounds were added to cells and after two minutes preincubation, the EC20 of acetylcholine is added followed by another two minutes preincubation before the measurement of intracellular Ca^2+ with a FLIPR (Molecular Devices).

rat M1 = rat M1 (Rattus norvegicus (Rat), UniProt P08482); test: M1 PAM Assay (FLIPR intracellular calcium), rat M1; type: cell-based; conditions: positive allosteric modulation in presence of EC20 of acetylcholine; second value of cell
Chain of rat M1 (P08482 whole entry): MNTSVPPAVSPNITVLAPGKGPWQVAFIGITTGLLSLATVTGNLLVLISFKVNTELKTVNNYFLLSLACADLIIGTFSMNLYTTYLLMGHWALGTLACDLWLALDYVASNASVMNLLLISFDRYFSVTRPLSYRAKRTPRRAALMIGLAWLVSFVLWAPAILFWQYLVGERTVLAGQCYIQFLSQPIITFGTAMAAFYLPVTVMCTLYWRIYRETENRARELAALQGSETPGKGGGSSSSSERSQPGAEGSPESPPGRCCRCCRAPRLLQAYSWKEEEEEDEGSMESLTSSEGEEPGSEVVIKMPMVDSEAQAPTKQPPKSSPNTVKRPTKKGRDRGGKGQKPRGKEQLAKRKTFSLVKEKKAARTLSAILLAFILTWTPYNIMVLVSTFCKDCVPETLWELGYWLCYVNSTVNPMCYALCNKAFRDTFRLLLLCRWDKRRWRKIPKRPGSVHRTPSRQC
Description: [The procedure below names another species; the source lists this species under the same test.] as §1, §2

Chain of hM1 (P11229 whole entry): as the sequence (P08482 whole entry) above, with V5A, S254T, S309P, K320R, G337A, V413I counted along it

EC50 (hM1) [nM]	EC50 (rat M1) [nM]	Structure (SMILES)
20	41	Cn1cc(-c2ccc(Cc3cc(C(=O)N[C@H]4CCCC[C@@]4(C)O)c(F)c4ccccc34)cn2)cn1 (racemic) [Example 22, 1-fluoro-N-((1SR,2RS)-2-hydroxy-2-methylcyclohexyl)-4-((6-(1-methyl-1H-pyrazol-4-yl)pyridin-3-yl)methyl)-2-naphthamide]
65	97	Cn1cc(-c2ccc(Cc3cc(C(=O)N[C@@H]4CCOC[C@H]4O)c(F)c4ccccc34)cn2)cn1 [Example 19, 1-fluoro-N-[(3S,4R)-3-hydroxytetrahydropyran-4-yl]-4-[[6-(1-methylpyrazol-4-yl)-3-pyridyl]methyl]naphthalene-2-carboxamide]
3	6	Cn1cc(-c2ccc(Cc3cc(C(=O)N[C@H]4CCOC[C@@H]4O)c(F)c4ccccc34)cn2)cn1 (racemic) [Example 18, 1-fluoro-N-((3RS,4SR)-3-hydroxytetrahydro-2H-pyran-4-yl)-4-((6-(1-methyl-1H-pyrazol-4-yl)pyridin-3-yl)methyl)-2-naphthamide]
27	52	O=C(N[C@@H]1CCOC[C@H]1O)c1cc(Cc2ccc(Cl)nc2)c2ccccc2c1F (stereo in doubt) [Example 25, 4-[(6-chloropyridin-3-yl)methyl]-1-fluoro-N-[(3S,4R)-3-hydroxyoxan-4-yl]naphthalene-2-carboxamide]
2	2	Cn1cc(-c2ccc(Cc3cc(C(=O)N[C@H]4CCOC[C@@H]4O)c(F)c4ccccc34)cn2)cn1 [Example 20, 1-fluoro-N-[(3R,4S)-3-hydroxytetrahydropyran-4-yl]-4-[[6-(1-methylpyrazol-4-yl)-3-pyridyl]methyl]naphthalene-2-carboxamide]
33	48	Cn1cc(-c2ccc(Cc3cc(C(=O)N[C@H]4COCC[C@@H]4O)c(F)c4ccccc34)cn2)cn1 [Example 21, 1-fluoro-N-((3S,4S)-4-hydroxytetrahydro-2H-pyran-3-yl)-4-((6-(1-methyl-1H-pyrazol-4-yl)pyridin-3-yl)methyl)-2-naphthamide]
230	347	O=C(N[C@H]1CCCC[C@@H]1O)c1cc(Cc2ccc(C3CC3)nc2)c2ccccc2c1F [Example 24, 4-((6-Cyclopropylpyridin-3-yl)methyl)-1-fluoro-N-((1S,2S)-2-hydroxycyclohexyl)-2-naphthamide]
10	14	Cn1cc(-c2ccc(Cc3cc(C(=O)N[C@H]4CCCC[C@@H]4O)c(F)c4ccccc34)cn2)cn1 (racemic) [Example 17, 1-Fluoro-N-((1S,2S)-2-hydroxycyclohexyl)-4-((6-(1-methyl-1H-pyrazol-4-yl)pyridin-3-yl)methyl)-2-naphthamide]
14	14	Cn1cc(-c2ccc(Cc3cc(C(=O)N[C@H]4CCOC[C@@H]4O)c(F)c4ccccc34)c(F)c2)cn1 (racemic) [Example 14, 1-fluoro-4-(2-fluoro-4-(1-methyl-1H-pyrazol-4-yl)benzyl)-N-((3RS,4SR)-3-hydroxytetrahydro-2H-pyran-4-yl)-2-naphthamide]
213	490	Cc1ccc(Cc2cc(C(=O)N[C@H]3CCCC[C@@H]3O)c(F)c3ccccc23)cn1 (racemic) [Example 23, 1-Fluoro-N-((1SR,2SR)-2-hydroxycyclohexyl)-4-((6-methylpyridin-3-yl)methyl)-2-naphthamide]
11	20	Cn1cc(-c2ccc(Cc3cc(C(=O)N[C@H]4CCOC[C@@H]4O)c(F)c4ccccc34)cc2)cn1 (racemic) [Example 16, 1-fluoro-N-((3RS,4SR)-3-hydroxytetrahydro-2H-pyran-4-yl)-4-(4-(1-methyl-1H-pyrazol-4-yl)benzyl)-2-naphthamide]
541		O=C(N[C@H]1CCOC[C@@H]1O)c1cc(Cc2ccc(OC(F)(F)F)cc2)c2ccccc2c1F (racemic) [Example 15, 1-fluoro-N-((3RS,4SR)-3-hydroxytetrahydro-2H-pyran-4-yl)-4-(4-(trifluoromethoxy)benzyl)-2-naphthamide]

More lines, now with the values behind:

Structure (SMILES)	EC50 (hM1) [nM]	EC50 (rat M1) [nM]
O=C(N[C@H]1COCC[C@@H]1O)c1cc(Cc2ccc(Cl)nc2)c2ccccc2c1F [Example 4, 4-((6-Chloropyridin-3-yl)methyl)-1-fluoro-N-((3S,4S)-4-hydroxytetrahydro-2H-pyran-3-yl)-2-naphthamide]	428	
C[C@@]1(O)CCCC[C@@H]1NC(=O)c1cc(Cc2ccc(Cl)nc2)c2ccccc2c1F (racemic) [Example 8, 4-((6-chloropyridin-3-yl)methyl)-1-fluoro-N-((1SR,2RS)-2-hydroxy-2-methylcyclohexyl)-2-naphthamide]	524	
O=C(N[C@H]1CCCC[C@@H]1O)c1cc(Cc2ccc(Cl)nc2)c2ccccc2c1F (racemic) [Example 1, 4-((6-Chloropyridin-3-yl)methyl)-1-fluoro-N-((1SR,2SR)-2-hydroxycyclohexyl)-2-naphthamide]	159	137
O=C(N[C@H]1CCOC[C@@H]1O)c1cc(Cc2ccccc2)c2ccccc2c1F (racemic) [Example 11, 4-benzyl-1-fluoro-N-((3RS,4SR)-3-hydroxytetrahydro-2H-pyran-4-yl)-2-naphthamide]	197	356
O=C(N[C@H]1CCC[C@@H]1O)c1cc(Cc2ccc(Cl)nc2)c2ccccc2c1F [Example 5, 4-((6-chloropyridin-3-yl)methyl)-1-fluoro-N-((1S,2S)-2-hydroxycyclopentyl)-2-naphthamide]	363	968
N#CC1(c2ccccn2)CCN(Cc2cc(C(=O)N[C@H]3CCCC[C@@H]3O)c(F)c3ccccc23)CC1 [Example 26, 4-((4-Cyano-4-(pyridin-2-yl)piperidin-1-yl)methyl)-1-fluoro-N-((1S,2S)-2-hydroxycyclohexyl)-2-naphthamide]	258	345
O=C(N[C@H]1CCCC[C@H]1O)c1cc(Cc2ccc(Cl)nc2)c2ccccc2c1F (racemic) [Example 9, 4-((6-chloropyridin-3-yl)methyl)-1-fluoro-N-((1SR,2RS)-2-hydroxycyclohexyl)-2-naphthamide]	539	
O=C(N[C@H]1CCOC[C@@H]1O)c1cc(Cc2ccc(Cl)cc2)c2ccccc2c1F (racemic) [Example 12, 4-(4-chlorobenzyl)-1-fluoro-N-((3RS,4SR)-3-hydroxytetrahydro-2H-pyran-4-yl)-2-naphthamide]	152	273
Cc1ccc(Cc2cc(C(=O)N[C@H]3CCOC[C@@H]3O)c(F)c3ccccc23)cc1 (racemic) [Example 10, 1-Fluoro-N-((3RS,4SR)-3-hydroxytetrahydro-2H-pyran-4-yl)-4-(4-methylbenzyl)-2-naphthamide]	154	221
O=C(N[C@H]1CCOC[C@@H]1O)c1cc(Cc2ccc(Cl)nc2)c2ccccc2c1F (racemic) [Example 2, 4-((6-chloropyridin-3-yl)methyl)-1-fluoro-N-((3RS,4SR)-3-hydroxytetrahydro-2H-pyran-4-yl)-2-naphthamide]	53	118
O=C(N[C@H]1CCC[C@H]1O)c1cc(Cc2ccc(Cl)nc2)c2ccccc2c1F [Example 6, 4-((6-chloropydridin-3-yl)methyl)-1-fluoro-N-((1S,2R)-2-hydroxycyclopentyl)-2-naphthamide]	575	
C[C@]1(O)CCCC[C@@H]1NC(=O)c1cc(Cc2ccc(Cl)nc2)c2ccccc2c1F (racemic) [Example 7, 4-((6-chloropyridin-3-yl)methyl)-1-fluoro-N-((1SR,2SR)-2-hydroxy-2-methylcyclohexyl)-2-naphthamide]	561	
N#Cc1ccc(Cc2cc(C(=O)N[C@H]3CCOC[C@@H]3O)c(F)c3ccccc23)cc1 (racemic) [Example 13, 4-(4-cyanobenzyl)-1-fluoro-N-((3RS,4SR)-3-hydroxytetrahydro-2H-pyran-4-yl)-2-naphthamide]	67	71
O=C(N[C@H]1CCCC[C@@H]1O)c1cc(Cc2ccc(Cl)nc2)c2ccccc2c1F [Example 3, 4-((6-chloropydridin-3-yl)methyl)-1-fluoro-N-((1S,2S)-2-hydroxycyclohexyl)-2-naphthamide]	84	101
